Data taken from patent US20130252930A1 (BIOMARIN PHARMACEUTICAL INC., priority 2010, published 2013).

How the values were obtained:
[1] = molecular target: T1, Cyp21 enzyme (Human HEK 293-Cyp21 stable transfected cells) (Homo sapiens, UniProt P08686); test: CYP21-HEK293 enzymatic assay (IC50) (Biological Example 11); assay type: cell-based; conditions: HEK 293-Cyp21 cells; read-out: Biological Example No. 11: CYP21-HEK293 enzymatic assay IC50
T1 construct: expressed in transfected cells
T1 sequence (P08686 1-495): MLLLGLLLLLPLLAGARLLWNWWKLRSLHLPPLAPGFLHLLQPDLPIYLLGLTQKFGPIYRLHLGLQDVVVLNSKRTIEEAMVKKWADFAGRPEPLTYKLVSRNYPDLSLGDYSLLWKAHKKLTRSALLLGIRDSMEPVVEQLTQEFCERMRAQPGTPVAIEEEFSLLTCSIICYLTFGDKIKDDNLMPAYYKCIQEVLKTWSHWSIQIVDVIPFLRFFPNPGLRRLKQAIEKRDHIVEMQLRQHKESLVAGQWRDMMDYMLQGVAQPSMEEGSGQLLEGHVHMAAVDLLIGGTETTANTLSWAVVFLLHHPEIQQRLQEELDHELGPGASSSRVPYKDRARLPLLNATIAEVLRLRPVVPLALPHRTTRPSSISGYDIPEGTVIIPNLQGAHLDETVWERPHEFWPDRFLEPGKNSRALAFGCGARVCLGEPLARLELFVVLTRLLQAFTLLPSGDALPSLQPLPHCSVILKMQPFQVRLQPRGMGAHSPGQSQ

[2] = molecular target: T2, CYP17 (human testicular microsome) (Homo sapiens, UniProt P05093); test: CYP17 enzymatic assay (% inhibition at 1 nM) (Biological Example 12); assay type: biochemical; conditions: compound at 1 nM, read-out: Biological Example No. 12: CYP17 enzymatic assay % inhibition at 1 nM
T2 construct: using microsomal fraction from human testis (Celsis Cat #S00110) as the enzyme source; tissue Celsis S00110; host or cells: human testis microsomal fraction
T2 sequence (P05093 1-508): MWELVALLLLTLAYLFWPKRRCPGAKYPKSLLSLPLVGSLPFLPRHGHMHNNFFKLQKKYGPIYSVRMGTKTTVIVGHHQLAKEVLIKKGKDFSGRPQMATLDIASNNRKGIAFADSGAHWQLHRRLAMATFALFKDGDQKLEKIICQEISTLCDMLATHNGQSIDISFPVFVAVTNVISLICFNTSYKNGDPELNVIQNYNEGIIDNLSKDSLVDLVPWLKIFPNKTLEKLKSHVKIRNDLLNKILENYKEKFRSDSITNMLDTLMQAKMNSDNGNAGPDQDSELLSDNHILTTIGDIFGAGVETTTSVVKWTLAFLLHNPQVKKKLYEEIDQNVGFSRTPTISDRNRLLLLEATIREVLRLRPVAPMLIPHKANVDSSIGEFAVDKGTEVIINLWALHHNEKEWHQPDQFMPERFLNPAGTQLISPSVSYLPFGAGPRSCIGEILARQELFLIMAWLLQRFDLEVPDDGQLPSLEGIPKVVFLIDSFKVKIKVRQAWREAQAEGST

SMILES	IC50 [1]	inhibition at 0.001 µM [2]
CCC1CC2C(CC[C@]3(C)C(c4cncc(F)c4)=CCC23)[C@@]2(C)CCC(=O)C=C12 (stereo partly drawn) [Compound 333, (10R,13S)-6-ethyl-17-(5-fluoropyridin-3-yl)-10,13-dimethyl-6,7,8,9,10,11,12,13,14,15-decahydro-1H-cyclopenta[a]phenanthren-3(2H)-one]	> 1000 nM	< 10%
CCC1CC2C(CC[C@]3(C)C(c4cncc(C(F)F)c4)=CCC23)[C@@]2(C)CCC(=O)C=C12 (stereo partly drawn) [Compound 334, (10R,13S)-17-(5-(difluoromethyl)pyridin-3-yl)-6-ethyl-10,13-dimethyl-6,7,8,9,10,11,12,13,14,15-decahydro-1H-cyclopenta[a]phenanthren-3(2H)-one]	> 1000 nM	< 10%
C[C@]12CCC(=O)C=C1C(n1ccnn1)CC1C2CC[C@]2(C)C(c3cccnc3)=CCC12 (stereo partly drawn) [Compound 335, (10R,13S)-10,13-dimethyl-17-(pyridin-3-yl)-6-(1H-1,2,3-triazol-1-yl)-6,7,8,9,10,11,12,13,14,15-decahydro-1H-cyclopenta[a]phenanthren-3(2H)-one]	> 1000 nM	10 to 50%
C[C@]12CCC(=O)C=C1C(n1nccn1)CC1C2CC[C@]2(C)C(c3cccnc3)=CCC12 (stereo partly drawn) [Compound 336, (10R,13S)-10,13-dimethyl-17-(pyridin-3-yl)-6-(2H-1,2,3-triazol-2-yl)-6,7,8,9,10,11,12,13,14,15-decahydro-1H-cyclopenta[a]phenanthren-3(2H)-one]	> 1000 nM	< 10%
C[C@]12CCC(=O)C=C1C(c1ccccc1)CC1C2CC[C@]2(C)C(c3cncc(F)c3)=CCC12 (stereo partly drawn) [Compound 337, (10R,13S)-17-(5-fluoropyridin-3-yl)-10,13-dimethyl-6-phenyl-6,7,8,9,10,11,12,13,14,15-decahydro-1H-cyclopenta[a]phenanthren-3(2H)-one]	> 1000 nM	< 10%
C[C@]12CCC(=O)C=C1C(c1ccccc1)CC1C2CC[C@]2(C)C(c3cccnc3)=CCC12 (stereo partly drawn) [Compound 338, (10R,13S)-10,13-dimethyl-6-phenyl-17-(pyridin-3-yl)-6,7,8,9,10,11,12,13,14,15-decahydro-1H-cyclopenta[a]phenanthren-3(2H)-one]	> 1000 nM	< 10%
C[C@]12CCC(=O)C=C1C(C1CC1)C[C@@H]1[C@@H]2CC[C@]2(C)C(c3cccnc3)=CC[C@@H]12 (stereo partly drawn) [Compound 339, (10R,13S)-6-cyclopropyl-10,13-dimethyl-17-(pyridin-3-yl)-6,7,8,9,10,11,12,13,14,15-decahydro-1H-cyclopenta[a]phenanthren-3(2H)-one]	> 1000 nM	< 10%
CC1CC2C(CC[C@]3(C)C(c4cncc(C(F)F)c4)=CCC23)[C@@]2(C)CCC(=O)C=C12 (stereo partly drawn) [Compound 341, (10R,13S)-17-(5-(difluoromethyl)pyridin-3-yl)-6,10,13-trimethyl-6,7,8,9,10,11,12,13,14,15-decahydro-1H-cyclopenta[a]phenanthren-3(2H)-one]	> 1000 nM	10 to 50%
C[C@]12CC[C@H]3[C@@H](CC(C4CC4)C4=CC(=O)CC[C@@]43C)C1=CC=C2c1cccnc1 (stereo partly drawn) [Compound 343, (10R,13S)-6-cyclopropyl-10,13-dimethyl-17-(pyridin-3-yl)-6,7,8,9,10,11,12,13-octahydro-1H-cyclopenta[a]phenanthren-3(2H)-one]	> 100 nM	10 to 50%
C[C@]12CC[C@H]3[C@@H](CC(c4ccccc4)C4=CC(=O)CC[C@@]43C)C1=CC=C2c1cccnc1 (stereo partly drawn) [Compound 344, (10R,13S)-10,13-dimethyl-6-phenyl-17-(pyridin-3-yl)-6,7,8,9,10,11,12,13-octahydro-1H-cyclopenta[a]phenanthren-3(2H)-one]	> 1000 nM	10 to 50%
CC1C[C@@H]2[C@H](CC[C@]3(C)C(c4cncc(C(F)F)c4)=CC[C@@H]23)[C@@]2(C)C=CC(=O)C=C12 (stereo partly drawn) [Compound 346, (10R,13S)-17-(5-(difluoromethyl)pyridin-3-yl)-6,10,13-trimethyl-6,7,8,9,10,11,12,13,14,15-decahydro-3H-cyclopenta[a]phenanthren-3-one]	> 1000 nM	10 to 50%
C[C@]12CCC3C(CCC4=CC(=O)CC[C@@]43C)C1=CC=C2c1ccc(F)nc1 (stereo partly drawn) [Compound 355, (10R,13S)-17-(6-fluoropyridin-3-yl)-10,13-dimethyl-6,7,8,9,10,11,12,13-octahydro-1H-cyclopenta[a]phenanthren-3(2H)-one]	> 1000 nM	10 to 50%
Cc1cnc(F)c(C2=CCC3C4CCC5=CC(=O)CC[C@]5(C)C4CC[C@]23C)c1 (stereo partly drawn) [Compound 356, (10R,13S)-17-(2-fluoro-5-methylpyridin-3-yl)-10,13-dimethyl-6,7,8,9,10,11,12,13,14,15-decahydro-1H-cyclopenta[a]phenanthren-3(2H)-one]	> 1000 nM	10 to 50%
C[C@]12CCC3C(CCC4=CC(=O)CC[C@@]43C)C1=CC=C2c1cncc(Cl)c1 (stereo partly drawn) [Compound 359, (10R,13S)-17-(5-chloropyridin-3-yl)-10,13-dimethyl-6,7,8,9,10,11,12,13-octahydro-1H-cyclopenta[a]phenanthren-3(2H)-one]	> 1000 nM	10 to 50%
C[C@]12CCC(=NO)C=C1C1(CC1)C[C@@H]1[C@@H]2CC[C@]2(C)C(c3cccnc3)=CC[C@@H]12 [Compound 362, (6cR,8aS)-10,13-dimethyl-17-(pyridin-3-yl)-1,7,8,9,10,11,12,13,14,15-decahydrospiro[cyclopenta[a]phenanthrene-6,1′-cyclopropan]-3(2H)-one oxime]	> 100 nM	10 to 50%
CC1(C)C2=CCC3C(CC[C@]4(C)C(c5cccnc5)=CCC34)[C@@]2(C)CC/C1=N\O (stereo partly drawn) [Compound 363, (10R,13S,E)-4,4,10,13-tetramethyl-17-(pyridin-3-yl)-4,7,8,9,10,11,12,13,14,15-decahydro-1H-cyclopenta[a]phenanthren-3(2H)-one oxime]	> 1000 nM	< 10%
C[C@]12C=CC(=NO)C=C1C1(CC1)C[C@@H]1[C@@H]2CC[C@]2(C)C(c3cccnc3)=CC[C@@H]12 [Compound 365, (6cR,8aS)-10,13-dimethyl-17-(pyridin-3-yl)-7,8,9,11,12,13,14,15-octahydrospiro[cyclopenta[a]phenanthrene-6,1′-cyclopropan]-3(10H)-one oxime]	> 100 nM	10 to 50%
C[C@]12CCC(=NO)C=C1C(F)CC1C2CC[C@]2(C)C(c3cccnc3)=CCC12 (stereo partly drawn) [Compound 366, (10R,13S)-6-fluoro-10,13-dimethyl-17-(pyridin-3-yl)-6,7,8,9,10,11,12,13,14,15-decahydro-1H-cyclopenta[a]phenanthren-3(2H)-one oxime]	> 1000 nM	10 to 50%
CC1CC2C(CC[C@]3(C)C(c4cccnc4)=CCC23)[C@@]2(C)C=CC(=NO)C=C12 (stereo partly drawn) [Compound 367, (10R,13S)-6,10,13-trimethyl-17-(pyridin-3-yl)-6,7,8,9,10,11,12,13,14,15-decahydro-3H-cyclopenta[a]phenanthren-3-one oxime]	> 1000 nM	10 to 50%
